Source: paper PMC4032193 (Journal of Medicinal Chemistry, 2014)
Where two headings read alike, the source gives them in different places.

Tests used:
[1] = system: HepG2 (hepatocellular carcinoma) cell line; settings: human
[2] = biological target: BoNT/A LC (Clostridium botulinum, UniProt P0DPI0); test: biochemical
[3] = system: P. falciparum African D6 clone; test: microbe, parasite or virus in culture; format: cell-based; settings: Plasmodium falciparum, D6, read-out: D6 IC50
[4] = mouse
[5] = human
[6] = in vitro; settings: mouse, microsomes
[7] = system: P. falciparum Indochina W2 clone; test: microbe, parasite or virus in culture; format: cell-based; settings: Plasmodium falciparum, W2, read-out: W2 IC50
[8] = system: P. falciparum multidrug resistant TM91C235 strain (Thailand); test: microbe, parasite or virus in culture; format: cell-based; settings: Plasmodium falciparum, read-out: TM91C235 IC50
[9] = system: P. berghei; settings: mouse, in vivo

Chain of BoNT/A LC (P0DPI0 2-448 limits assumed): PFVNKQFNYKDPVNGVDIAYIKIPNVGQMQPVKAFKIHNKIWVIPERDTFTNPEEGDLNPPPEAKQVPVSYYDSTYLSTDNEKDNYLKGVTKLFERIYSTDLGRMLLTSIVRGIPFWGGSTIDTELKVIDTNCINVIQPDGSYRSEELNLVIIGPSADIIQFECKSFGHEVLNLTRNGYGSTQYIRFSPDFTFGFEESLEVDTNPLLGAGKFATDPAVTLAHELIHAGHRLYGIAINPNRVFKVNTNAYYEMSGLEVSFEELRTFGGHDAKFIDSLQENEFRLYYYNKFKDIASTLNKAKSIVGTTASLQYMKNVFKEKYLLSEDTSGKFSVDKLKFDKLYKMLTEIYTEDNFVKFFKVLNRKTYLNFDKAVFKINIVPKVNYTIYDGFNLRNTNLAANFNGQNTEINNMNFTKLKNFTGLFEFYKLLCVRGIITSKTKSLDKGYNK

SMILES | SI HepG2/D6 [1] | SI HepG2/TM91C235 [1] | SI HepG2/W2 [1] | also measured
CC(=O)O[C@H]1C[C@H]2[C@@H]([C@H](OC(C)=O)C[C@@H]3C[C@H](NC(=O)OC(C)(C)C)CC[C@@]32C)[C@@H]2CC[C@H]([C@H](C)CCCN(CCCNc3ccnc4cc(Cl)ccc34)CCC[C@@H](C)[C@H]3CC[C@H]4[C@@H]5[C@H](OC(C)=O)C[C@@H]6C[C@H](NC(=O)OC(C)(C)C)CC[C@]6(C)[C@H]5C[C@H](OC(C)=O)[C@]34C)[C@@]12C [Compound 59, N,N-Di(3α-amino-tert-butylcarbamate-7α,12α-diacetoxy-5β-cholan-24-yl)-N′-(7′-chloroquinoline-4′-yl)-1,3-propanediamine] | 96/96/96 | 96/96/96 | 96/96/96 | inhibition at 20 µM ([2]; at 20 μM): 6%
CCN(CC)CCCC(C)Nc1ccnc2cc(Cl)ccc12 (stereo not drawn) [Compound 9, chloroquine] | – | – | – | IC50 [3]: 0.0123 µM
N=C(N)c1ccc(Oc2ccc(-c3cc4ccc(C(=N)N)cc4[nH]3)cc2)cc1 [NSC 240898, reference compound] | – | – | – | inhibition at 20 µM [2]: 73.3%
CC(=O)O[C@H]1C[C@H]2[C@@H]([C@H](OC(C)=O)C[C@@H]3C[C@H](N(C)C)CC[C@@]32C)[C@@H]2CC[C@H]([C@H](C)CCCN(C)CCCNc3ccnc4cc(Cl)ccc34)[C@@]12C [Compound 57] | 93/35/71 | 93/35/71 | 93/35/71 | MLM stability (t1/2) [4]: 60/60 min; HLM stability (t1/2) [5]: 60/60 min
CC(=O)O[C@H]1C[C@H]2[C@@H]([C@H](OC(C)=O)C[C@@H]3C[C@H](O)CC[C@@]32C)[C@@H]2CC[C@H]([C@H](C)CCCNCCCNc3ccnc4cc(Cl)ccc34)[C@@]12C [Compound 17] | 84/115/90 | 84/115/90 | 84/115/90 | half-life [6]: > 1 h
CC(=O)O[C@H]1C[C@H]2[C@@H]([C@H](OC(C)=O)C[C@@H]3C[C@H](N(C)C)CC[C@@]32C)[C@@H]2CC[C@H]([C@H](C)CCCN(C)CCNc3ccnc4cc(Cl)ccc34)[C@@]12C [Compound 56, 24-N-Methyl-N-[(7-chloroquinoline-4-yl)amino]ethylamino-3α-N′,N′-dimethylamino-7α,12α-diacetoxy-5β-cholane] | 6824/3920/3176 | 6824/3920/3176 | 6824/3920/3176 | half-life [6]: > 1 h
CC(=O)O[C@H]1C[C@H]2[C@@H]([C@H](OC(C)=O)C[C@@H]3C[C@H](N(C)C)CC[C@@]32C)[C@@H]2CC[C@H]([C@H](C)CCCNCCNc3ccnc4cc(Cl)ccc34)[C@@]12C [Compound 50, 24-N-[(7-Chloroquinoline-4-yl)amino]ethylamino-3α-N′,N′-dimethylamino-7α,12α-diacetoxy-5β-cholane] | 714/333/435 | 714/333/435 | 714/333/435 | MLM stability (t1/2) [4]: 60/60 min; HLM stability (t1/2) [5]: 60/60 min
CC(=O)O[C@@H]1CC[C@@]2(C)[C@@H](C1)C[C@@H](OC(C)=O)[C@@H]1[C@@H]2C[C@H](OC(C)=O)[C@]2(C)[C@@H]([C@H](C)CCCNCCNc3ccnc4cc(Cl)ccc34)CC[C@@H]12 [Compound 12, N-(3α,7α,12α-Triacetoxy-5β-cholan-24-yl)-N′-(7′-chloroquinolin-4′-yl)ethane-1,2-diamine] | – | – | – | IC50 [3]: 0.0169 µM; IC50 [7]: 0.0114 µM; IC50 [8]: 0.0277 µM
CC(=O)O[C@H]1C[C@H]2[C@@H]([C@H](OC(C)=O)C[C@@H]3C[C@H](NS(C)(=O)=O)CC[C@@]32C)[C@@H]2CC[C@H]([C@H](C)CCCN(C)CCCNc3ccnc4cc(Cl)ccc34)[C@@]12C [Compound 43] | 93/89/139 | 93/89/139 | 93/89/139 | half-life [6]: > 1 h
CC(=O)O[C@H]1C[C@H]2[C@@H]([C@H](OC(C)=O)C[C@@H]3C[C@H](N)CC[C@@]32C)[C@@H]2CC[C@H]([C@H](C)CCCN(CCCNc3ccnc4cc(Cl)ccc34)CCC[C@@H](C)[C@H]3CC[C@H]4[C@@H]5[C@H](OC(C)=O)C[C@@H]6C[C@H](N)CC[C@]6(C)[C@H]5C[C@H](OC(C)=O)[C@]34C)[C@@]12C [Compound 61] | 10/9/7 | 10/9/7 | 10/9/7 | –
CC(=O)O[C@@H]1CC[C@@]2(C)[C@@H](C1)C[C@@H](OC(C)=O)[C@@H]1[C@@H]2C[C@H](OC(C)=O)[C@]2(C)[C@@H]([C@H](C)CCCN(C)CCCNc3ccnc4cc(Cl)ccc34)CC[C@@H]12 [Compound 21] | 134/229/71 | 134/229/71 | 134/229/71 | –
CC(=O)O[C@H]1C[C@H]2[C@@H]([C@H](OC(C)=O)C[C@@H]3C[C@H](N)CC[C@@]32C)[C@@H]2CC[C@H]([C@H](C)CCCN(C)CCNc3ccnc4cc(Cl)ccc34)[C@@]12C [Compound 54, 24-N-Methyl-N-[(7-chloroquinoline-4-yl)amino]ethylamino-3α-amino-7α,12α-diacetoxy-5β-cholane] | 4993/3995/2327 | 4993/3995/2327 | 4993/3995/2327 | MLM stability (t1/2) [4]: 60/60 min; HLM stability (t1/2) [5]: 60/60 min; protection/cure of mice [9]: failed to protect/cure mice; day postinfection on which mice died ([9]; po): 13; signs of compound toxicity upon necropsy ([9]; po): no signs of tissue damage caused by compound toxicity
CC(=O)O[C@H]1C[C@H]2[C@@H]([C@H](OC(C)=O)C[C@@H]3CC(=O)CC[C@@]32C)[C@@H]2CC[C@H]([C@H](C)CCCNCCCNc3ccnc4cc(Cl)ccc34)[C@@]12C [Compound 23] | 161/182/121 | 161/182/121 | 161/182/121 | –
